Values joined by “and” are separate entries in the source; they are usually repeats but may differ in a detail not shown here. Identical values can stand only once. Toxic doses and inconclusive results are not listed.
Tested on: L1210 leukemia ip in BDF1 mice, survival T/C
Assay: NCI In Vivo Anticancer Drug Screen. Data for tumor model L1210 Leukemia (intraperitoneal) in B6D2F1 (BDF1) mice
Details: higher = longer survival
Method in brief: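 Antitumor effect is assessed in tumor-bearing animals. Survival in the compound arm is compared with a vehicle-dosed control arm and expressed as their quotient.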

[1] = endpoint: mean survival time, dose: 100.0 mg/kg/injection, schedule: Q01DX001 (ip), vehicle: other
[2] = endpoint: mean survival time, dose: 200.0 mg/kg/injection, schedule: Q01DX001 (ip), vehicle: other
[3] = endpoint: mean survival time, dose: 400.0 mg/kg/injection, schedule: Q01DX001 (ip), vehicle: other
[4] = endpoint: mean survival time, dose: 100.0 mg/kg/injection, schedule: Q04DX003 (ip), vehicle: Klucel (hydroxypropylcellulose) (HPC)
[5] = endpoint: mean survival time, dose: 200.0 mg/kg/injection, schedule: Q04DX003 (ip), vehicle: Klucel (hydroxypropylcellulose) (HPC)
[6] = endpoint: mean survival time, dose: 400.0 mg/kg/injection, schedule: Q04DX003 (ip), vehicle: Klucel (hydroxypropylcellulose) (HPC)
[7] = endpoint: mean survival time, dose: 100.0 mg/kg/injection, schedule: Q01DX009 (ip), vehicle: Klucel (hydroxypropylcellulose) (HPC)
[8] = endpoint: mean survival time, dose: 200.0 mg/kg/injection, schedule: Q01DX009 (ip), vehicle: Klucel (hydroxypropylcellulose) (HPC)
[9] = endpoint: mean survival time, dose: 400.0 mg/kg/injection, schedule: Q01DX009 (ip), vehicle: Klucel (hydroxypropylcellulose) (HPC)
[10] = endpoint: mean survival time, dose: 100.0 mg/kg/injection, schedule: Q01DX001 (ip), vehicle: saline
[11] = endpoint: mean survival time, dose: 200.0 mg/kg/injection, schedule: Q01DX001 (ip), vehicle: saline

CC(C)COC(=O)c1cccc2c1-c1ccccc1C2=O
T/C [1]: 96 % of control
T/C [2]: 87 % of control
T/C [3]: 98 % of control

CCOC(=O)c1ccc(C)cc1Nc1ccccc1C(F)(F)F
T/C [4]: 90 % of control
T/C [5]: 94 % of control
T/C [6]: 95 % of control

NC(=O)N(CCCl)N=O
T/C (endpoint: mean survival time, dose: 0.06 mg/kg/injection, schedule: Q#A X Z (oral), vehicle: saline): 123 % of control
T/C (endpoint: mean survival time, dose: 0.12 mg/kg/injection, schedule: Q01DX010 (iv), vehicle: saline): 98 % of control
T/C (endpoint: mean survival time, dose: 0.13 mg/kg/injection, schedule: Q01DX Z (oral), vehicle: saline): 118 % of control
T/C (endpoint: mean survival time, dose: 0.19 mg/kg/injection, schedule: Q03DX Z (oral), vehicle: saline): 112 % of control
T/C (endpoint: mean survival time, dose: 0.2 mg/kg/injection, schedule: Q01DX Z (sc), vehicle: methylcellulose (MC)): 101 % of control
T/C (endpoint: mean survival time, dose: 0.25 mg/kg/injection, schedule: Q01DX010 (iv), vehicle: saline): 118 % of control
T/C (endpoint: mean survival time, dose: 0.25 mg/kg/injection, schedule: Q01DX Z (oral), vehicle: saline): 182 % of control
T/C (endpoint: mean survival time, dose: 0.25 mg/kg/injection, schedule: Q#A X Z (oral), vehicle: saline): 255 % of control
T/C (endpoint: mean survival time, dose: 0.38 mg/kg/injection, schedule: Q03DX Z (oral), vehicle: saline): 121 % of control
T/C (endpoint: mean survival time, dose: 0.4 mg/kg/injection, schedule: Q01DX Z (ip), vehicle: carboxymethylcellulose (CMC)): 157 % of control and 201 % of control
T/C (endpoint: mean survival time, dose: 0.4 mg/kg/injection, schedule: Q01DX Z (ip), vehicle: methylcellulose (MC)): 151 % of control
T/C (endpoint: mean survival time, dose: 0.4 mg/kg/injection, schedule: Q01DX Z (sc), vehicle: methylcellulose (MC)): 98 % of control and 101 % of control
T/C (endpoint: mean survival time, dose: 0.44 mg/kg/injection, schedule: Q07DX Z (oral), vehicle: saline): 105 % of control
T/C (endpoint: mean survival time, dose: 0.5 mg/kg/injection, schedule: Q01DX009 (ip), vehicle: saline): 159 % of control and 163 % of control and 176 % of control
T/C (endpoint: mean survival time, dose: 0.5 mg/kg/injection, schedule: Q01DX Z (oral), vehicle: saline): 266 % of control
T/C (endpoint: mean survival time, dose: 0.6 mg/kg/injection, schedule: Q01DX Z (ip), vehicle: carboxymethylcellulose (CMC)): 170 % of control and 197 % of control
T/C (endpoint: mean survival time, dose: 0.6 mg/kg/injection, schedule: Q01DX Z (ip), vehicle: methylcellulose (MC)): 166 % of control and 171 % of control
T/C (endpoint: mean survival time, dose: 0.6 mg/kg/injection, schedule: Q01DX Z (sc), vehicle: methylcellulose (MC)): 98 % of control and 101 % of control
T/C (endpoint: mean survival time, dose: 0.88 mg/kg/injection, schedule: Q07DX Z (oral), vehicle: saline): 124 % of control
T/C (endpoint: mean survival time, dose: 0.9 mg/kg/injection, schedule: Q01DX Z (ip), vehicle: carboxymethylcellulose (CMC)): 205 % of control and 257 % of control
T/C (endpoint: mean survival time, dose: 0.9 mg/kg/injection, schedule: Q01DX Z (ip), vehicle: methylcellulose (MC)): 181 % of control and 250 % of control
T/C (endpoint: mean survival time, dose: 0.9 mg/kg/injection, schedule: Q01DX Z (oral), vehicle: carboxymethylcellulose (CMC)): 117 % of control
T/C (endpoint: mean survival time, dose: 0.9 mg/kg/injection, schedule: Q01DX Z (sc), vehicle: methylcellulose (MC)): 98 % of control and 101 % of control
T/C (endpoint: mean survival time, dose: 1.0 mg/kg/injection, schedule: Q01DX009 (ip), vehicle: saline): 202 % of control and 222 % of control and 253 % of control
T/C (endpoint: mean survival time, dose: 1.0 mg/kg/injection, schedule: Q01DX010 (iv), vehicle: saline): 215 % of control
T/C (endpoint: mean survival time, dose: 1.35 mg/kg/injection, schedule: Q01DX Z (ip), vehicle: carboxymethylcellulose (CMC)): 176 % of control and 227 % of control
T/C (endpoint: mean survival time, dose: 1.5 mg/kg/injection, schedule: Q03DX Z (oral), vehicle: saline): 234 % of control
T/C (endpoint: mean survival time, dose: 1.6 mg/kg/injection, schedule: Q01DX Z (oral), vehicle: methylcellulose (MC)): 167 % of control
T/C (endpoint: mean survival time, dose: 1.75 mg/kg/injection, schedule: Q07DX Z (oral), vehicle: saline): 178 % of control
T/C (endpoint: mean survival time, dose: 1.8 mg/kg/injection, schedule: Q01DX Z (oral), vehicle: carboxymethylcellulose (CMC)): 102 % of control and 117 % of control
T/C (endpoint: mean survival time, dose: 2.0 mg/kg/injection, schedule: Q01DX009 (ip), vehicle: saline): 219 % of control and 317 % of control and 319 % of control
T/C (endpoint: mean survival time, dose: 2.0 mg/kg/injection, schedule: Q01DX010 (iv), vehicle: saline): 123 % of control
T/C (endpoint: mean survival time, dose: 3.5 mg/kg/injection, schedule: Q01DX Z (oral), vehicle: carboxymethylcellulose (CMC)): 114 % of control
T/C (endpoint: mean survival time, dose: 3.5 mg/kg/injection, schedule: Q07DX Z (oral), vehicle: saline): 266 % of control
T/C (endpoint: mean survival time, dose: 3.6 mg/kg/injection, schedule: Q01DX001 (ip), vehicle: saline): 239 % of control and 271 % of control and 91 % of control
T/C (endpoint: mean survival time, dose: 4.0 mg/kg/injection, schedule: Q01DX009 (ip), vehicle: saline): 111 % of control and 113 % of control
T/C (endpoint: mean survival time, dose: 7.0 mg/kg/injection, schedule: Q01DX Z (oral), vehicle: carboxymethylcellulose (CMC)): 194 % of control
T/C (endpoint: mean survival time, dose: 7.2 mg/kg/injection, schedule: Q01DX001 (ip), vehicle: saline): 265 % of control and 303 % of control
T/C (endpoint: mean survival time, dose: 14.0 mg/kg/injection, schedule: Q01DX Z (oral), vehicle: carboxymethylcellulose (CMC)): 111 % of control
T/C (endpoint: mean survival time, dose: 25.0 micrograms/kg/injection, schedule: Q01DX Z (oral), vehicle: steriod suspending solution): 101 % of control
T/C (endpoint: mean survival time, dose: 50.0 micrograms/kg/injection, schedule: Q01DX Z (oral), vehicle: steriod suspending solution): 104 % of control
T/C (endpoint: mean survival time, dose: 100.0 micrograms/kg/injection, schedule: Q01DX Z (oral), vehicle: steriod suspending solution): 115 % of control
T/C (endpoint: mean survival time, dose: 110.0 micrograms/kg/injection, schedule: Q01DX Z (sc), vehicle: steriod suspending solution): 102 % of control
T/C (endpoint: mean survival time, dose: 200.0 micrograms/kg/injection, schedule: Q01DX Z (oral), vehicle: steriod suspending solution): 165 % of control
T/C (endpoint: mean survival time, dose: 220.0 micrograms/kg/injection, schedule: Q01DX Z (sc), vehicle: steriod suspending solution): 105 % of control
T/C (endpoint: mean survival time, dose: 450.0 micrograms/kg/injection, schedule: Q01DX Z (sc), vehicle: steriod suspending solution): 124 % of control
T/C (endpoint: median survival time, dose: 0.5 mg/kg/injection, schedule: Q01DX009 (ip), vehicle: saline): 162 % of control
T/C (endpoint: median survival time, dose: 1.0 mg/kg/injection, schedule: Q01DX009 (ip), vehicle: saline): 206 % of control
T/C (endpoint: median survival time, dose: 2.0 mg/kg/injection, schedule: Q01DX009 (ip), vehicle: saline): 181 % of control
T/C (endpoint: median survival time, dose: 4.0 mg/kg/injection, schedule: Q01DX009 (ip), vehicle: saline): 112 % of control

O=C(c1ccc(F)cc1)c1ccc(Cl)cc1Cl
T/C (endpoint: mean survival time, dose: 100.0 mg/kg/injection, schedule: Q04DX003 (ip), vehicle: saline with Tween-80): 97 % of control
T/C (endpoint: mean survival time, dose: 200.0 mg/kg/injection, schedule: Q04DX003 (ip), vehicle: saline with Tween-80): 98 % of control
T/C (endpoint: mean survival time, dose: 400.0 mg/kg/injection, schedule: Q04DX003 (ip), vehicle: saline with Tween-80): 101 % of control

COc1ccc(OC2CCCCC2OS(C)(=O)=O)cc1 (configuration not stated)
T/C (endpoint: mean survival time, dose: 100.0 mg/kg/injection, schedule: Q01DX001 (ip), vehicle: Klucel (hydroxypropylcellulose) (HPC)): 104 % of control
T/C [7]: 96 % of control
T/C [4]: 102 % of control
T/C (endpoint: mean survival time, dose: 200.0 mg/kg/injection, schedule: Q01DX001 (ip), vehicle: Klucel (hydroxypropylcellulose) (HPC)): 103 % of control
T/C [8]: 104 % of control
T/C [5]: 102 % of control
T/C (endpoint: mean survival time, dose: 400.0 mg/kg/injection, schedule: Q01DX001 (ip), vehicle: Klucel (hydroxypropylcellulose) (HPC)): 108 % of control
T/C [9]: 106 % of control
T/C [6]: 101 % of control

CCCCCCCCCCCCCCCCCC(N)=O
T/C [7]: 87 % of control
T/C [4]: 102 % of control
T/C [8]: 87 % of control
T/C [5]: 95 % of control
T/C [9]: 117 % of control
T/C [6]: 96 % of control

NC(=O)NC12CC3CC(CC(C3)C1)C2
T/C [10]: 89 % of control
T/C [11]: 89 % of control
T/C (endpoint: mean survival time, dose: 400.0 mg/kg/injection, schedule: Q01DX001 (ip), vehicle: saline): 101 % of control

NCc1cccn1OCc1ccccc1
T/C (endpoint: mean survival time, dose: 25.0 mg/kg/injection, schedule: Q01DX009 (ip), vehicle: Klucel (hydroxypropylcellulose) (HPC)): 108 % of control
T/C (endpoint: mean survival time, dose: 50.0 mg/kg/injection, schedule: Q01DX009 (ip), vehicle: Klucel (hydroxypropylcellulose) (HPC)): 108 % of control
T/C [7]: 152 % of control

CCC1(C)N=C(N)Nc2nc3ccccc3n21 (configuration not stated)
T/C [10]: 96 % of control
T/C [11]: 94 % of control

Cc1cccc(-c2nnc(C(Cl)(Cl)Cl)o2)c1
T/C [4]: 106 % of control
T/C [5]: 97 % of control
T/C [6]: 97 % of control

Nc1ccc2[nH]c3ccccc3c2c1
T/C [7]: 95 % of control
T/C [4]: 104 % of control
T/C [8]: 95 % of control
T/C [5]: 91 % of control
T/C [9]: 92 % of control
T/C [6]: 94 % of control

CCOC(=O)c1nn2c(C)nnc2s1
T/C (endpoint: mean survival time, dose: 100.0 mg/kg/injection, schedule: Q01DX001 (ip), vehicle: carboxymethylcellulose (CMC)): 98 % of control
T/C (endpoint: mean survival time, dose: 200.0 mg/kg/injection, schedule: Q01DX001 (ip), vehicle: carboxymethylcellulose (CMC)): 96 % of control
T/C (endpoint: mean survival time, dose: 400.0 mg/kg/injection, schedule: Q01DX001 (ip), vehicle: carboxymethylcellulose (CMC)): 98 % of control

CCCCCOC(=O)c1cccc2c1-c1ccccc1C2=O
T/C [1]: 93 % of control
T/C [2]: 98 % of control
T/C [3]: 93 % of control

From PubChem BioAssay AID248 (DTP/NCI, 2004)
